Measurements from patent EP0388245A1, “Agent resistant to AIDS virus” (TERUMO KABUSHIKI KAISHA, priority 1989, dated 1990).

Key:
[1] = test system: HTLV-IIIb (one kind of HIV); assay: Test for activity to inhibit hyperplasia of HIV: suppression of cytopathic effect (CPE), live cells counted by trypan blue; assay type: cell-based, human immunodeficiency virus (HIV); settings: for MT-4/HIV (live cells): HTLV-IIIb infected MT-4 cells, MOI 0.02, 4 days
Description: (§1) A test for the activity to inhibit hyperplasia of HIV was conducted in accordance with the method proposed by Harada et al [Science, 229, 563-5663 (1985)]. Testing conditions: Cell: […] (HTLV-I-carrying cell line) Virus: THLV-IIIb (one kind of HIV); HTLV-IIIb was prepared from the supernatant of the culture broth of MOLT-4/HIV, a HIV-producing cell. The potency of the virus was 1 x 10⁶ TCID 50/ml. Culture medium: RPMI-1640 (containing 10% bovine fetal serum, 100 IV/penicilin, and 100 µg/ml streptomycin) Culture conditions: In each of the wells of a 24-well culture tray, […] cells (6.6 x 10⁵/ml, 0.3 ml) and HTLV-II Ib ([…], 0.2 ml) were placed [multiplicity of infection (MOI = 0.02)] and cultured for 1 hour. After adsorption of virus, Compound A diluted with culture medium (0.5 ml) was added to a total volume of 1.0 ml and cultured at 37°C for 4 days. Cells not infected by HTLV-IIIb dilution aqueous solution and cells not treated with Compound A were used as controls.
(§2) Virally infected cells and uninfected cells were cultured for 4 days. After the culture, the live cells were counted by the trypan blue tinting method. The property of cytopathic effect suppression was evaluated by comparison of the number of live cells in the culture broths of virally infected cells and uninfected cells both obtained in the absence of Compound A.

MT-4 = assay: Toxicity to uninfected MT-4 cells, live cell count by trypan blue after 4 days culture; assay type: cell-based; settings: for MT-4 (live cells) / Toxicity (% control): uninfected MT-4 cells; for MT-4 (live cells): 4 days
Description: as §1, §2

[2] = test system: Reverse transcriptase originating in avain myeloblastic virum; assay: Test for activity to inhibit reverse transcriptase ([³H] thymidine triphosphate incorporation); assay type: biochemical; parameters: Radio activity #1 / Radio activity #2: unit not given here; settings: for % control: inhibition of reverse transcriptase
Description: This test was carried out by the method described below.
This test solution was prepared by dissolving Compound A in a concentration of 5 mg/ml in dimethyl sulfoxide and diluting the resultant solution with distilled water.
Fifty (50) µl of the measuring solution and 50 µl of the test solution were mixed and left reacting at 37°C for one hour. The reaction mixture was cooled with ice to stop the reaction. Then 50 µl of […] by a disk of DEAE cellulose paper 2.4 cm in diameter. The wet paper was washed three times with an aqueous 5% […] (with 12 molecules of crystal water) and once each with distilled water and ethanol. The radioactivity was determined with a liquid scintillation counter.

## K₇PW₁₀Ti₂O₄₀·6H₂O [Compound A]
[1]; 25 to 100 ug/ml, MT-4/HIV
  activity to control CPE: excelled in activity to control CPE
[1]; Compound A 25 µg/ml
  MT-4/HIV (live cells): 10.0 x 10⁵ cells/ml
[1]; Compound A 50 µg/ml
  MT-4/HIV (live cells): 9.8 x 10⁵ cells/ml
[1]; Compound A 100 µg/ml
  MT-4/HIV (live cells): 8.5 x 10⁵ cells/ml
[1]; Compound A 200 µg/ml
  MT-4/HIV (live cells): 4.8 x 10⁵ cells/ml
[1]; Compound A 400 µg/ml
  MT-4/HIV (live cells): 4.7 x 10⁵ cells/ml
[1]; MT-4/HIV, Compound A 25 µg/ml
  % CPE Control: 90%
[1]; MT-4/HIV, Compound A 50 µg/ml
  % CPE Control: 88%
[1]; MT-4/HIV, Compound A 100 µg/ml
  % CPE Control: 71%
[1]; MT-4/HIV, Compound A 200 µg/ml
  % CPE Control: 25%
[1]; MT-4/HIV, Compound A 400 µg/ml
  % CPE Control: 47%
MT-4; 25 to 100 ug/ml, MT-4
  toxicity: only inconspicuous toxicity
MT-4; Compound A 25 µg/ml
  MT-4 (live cells): 11.8 x 10⁵ cells/ml
  Toxicity (% control): 0 % control
MT-4; Compound A 50 µg/ml
  MT-4 (live cells): 9.8 x 10⁵ cells/ml
  Toxicity (% control): 1 % control
MT-4; Compound A 100 µg/ml
  MT-4 (live cells): 10.1 x 10⁵ cells/ml
  Toxicity (% control): 0 % control
MT-4; Compound A 200 µg/ml
  MT-4 (live cells): 8.5 x 10⁵ cells/ml
  Toxicity (% control): 21 % control
MT-4; Compound A 400 µg/ml
  MT-4 (live cells): 6.0 x 10⁵ cells/ml
  Toxicity (% control): 44 % control
[2]; Concentration 12,500 µg/ml
  Average value (CPM): 3906.0 CPM
  Radio activity #1: 3666
  Radio activity #2: 4146
  % control: 50.8%
[2]; Concentration 25,000 µg/ml
  Average value (CPM): 3878.0 CPM
  Radio activity #1: 3143
  Radio activity #2: 4613
  % control: 51.2%
[2]; Concentration 50,000 µg/ml
  Average value (CPM): 2450.5 CPM
  Radio activity #1: 1828
  Radio activity #2: 3079
  % control: 71.1%
[2]; Concentration 100,000 µg/ml
  Average value (CPM): 1391.0 CPM
  Radio activity #1: 1231
  Radio activity #2: 1391
  % control: 86.0%
[2]; Concentration 200,000 µg/ml
  Average value (CPM): 967.0 CPM
  Radio activity #1: 970
  Radio activity #2: 930
  % control: 92.0%
[2]; summary in words of Table 2
  activity to inhibit reverse transcriptase: manifested an activity to inhibit reverse transcriptase even in a small application rate
